# Test results as given in US11109592B2, “Selective weed control methods” (Corteva Agriscience LLC, priority 2013, dated 2021).
# Read-outs that look alike come from different tables or passages of the source.
# How the values were obtained:
# [1] = tested on: spring turnip (Brassica rapa); conditions: for injury to turnip, on average did not exceed: three field trials; for Percent (%) Crop Injury (Mean Value): B12-B16 crop stage
# [2] = tested on: Juncea canola (Brassica juncea); conditions: for injury to Juncea canola, on average did not exceed: five field trials; for Percent (%) Crop Injury (Mean Value): B12-B14 crop stage
# [3] = tested on: certain members of the Amaranthaceae, Asteraceae, Lamiaceae, Rubiaceae, Papaveraceae and Brassicaceae families; assay: Herbicidal activity (LD90) on plant families; format: in vivo; conditions: grams acid equivalent per hectare
# [4] = tested on: broadleaf weeds including cleavers (Galium aparine), chickweed (Stellaria media), pigweed (Amaranthus spp.), lamb's-quarters (Chenopodium album) and others; assay: Efficacy on commercially relevant broadleaf weeds; format: in vivo; conditions: application rate of 2.5 to 10 g ae/ha
# [5] = tested on: spring rutabaga (Brassica napus); conditions: for injury to rutabaga, on average did not exceed: three field trials; for Percent (%) Crop Injury (Mean Value): B12-B14 crop stage
# [6] = tested on: sunflowers, sorghum, yellow mustard, Brassicaceae-family crops, and sugar beets; assay: Overall crop safety, post-emergence application; format: in vivo; conditions: post-emergence application rates of ≤10 g ae/ha
# [7] = tested on: spring kale (Brassica oleracea); assay: Field trial, crop injury to spring kale, post-emergence; format: in vivo; conditions: B12-B16 crop stage
# Text: Data from the trials on spring kale (Brassica oleracea) are summarized Table 4.
# [8] = tested on: spring sorghum (Sorghum vulgare); assay: Field trial, crop injury to spring sorghum, post-emergence; conditions: B17-B22 crop stage
# [9] = tested on: yellow mustard (Sinapis alba); assay: Field trial, crop injury to and yield of yellow mustard, post-emergence; conditions: B14-B15 crop stage
# [10] = tested on: wild buckwheat (Polygonum convolvulus L.); assay: Field trial in sugar beet, visual control of wild buckwheat; format: in vivo; conditions: 36 days following last application
# Text: (§1) As used herein, selective post-emergent control of undesirable vegetation means preventing, reducing, killing, or otherwise adversely modifying the development of the undesirable vegetation in the presence of crop plants with limited adverse effect on the crop plants. For example, a broadleaf weed control of 80% (rated visually) with crop injury of less than or equal to 20%, rated visually, would constitute selective control. In some embodiments the adverse effect on crop plants is limited to less than 10% visually rated crop injury. […] Visual weed control is a composite rating accounting for reductions in pest plant biomass and/or stand reduction.
# (§2) Treatments 4 and 5 were split applications at the two indicated growth stages.
# [11] = tested on: Winfred forage brassica (Brassica rapa × oleracea); assay: Field trial, crop injury to Winfred forage brassica, post-emergence; format: in vivo; conditions: B14-B16 crop stage, Australia
# [12] = tested on: spring sunflower (Helianthus annuus); assay: Field trial, crop injury to spring sunflower, post-emergence; conditions: B12-B14 crop stage, Australia
# [13] = tested on: common lambsquarters (Chenopodium album L.); assay: Field trial in sugar beet, visual control of common lambsquarters; format: in vivo; conditions: 36 days following last application
# Text: as §1, §2
# [14] = rate 2.5 (g ae/ha), 1 week after application
# [15] = rate 2.5, 3-5 weeks after application
# [16] = rate 5, 1 week after application
# [17] = rate 5, 3-5 weeks after application
# [18] = rate 10, 1 week after application
# [19] = rate 10, 3-5 weeks after application
# [20] = rate 20, 1 week after application
# [21] = rate 2.5 (g ae/ha), 3-5 weeks after application
# [22] = rate 2.5, 6-10 weeks after application
# [23] = rate 5, 6-10 weeks after application
# [24] = rate 10, 6-10 weeks after application
# [25] = rate 20, 3-5 weeks after application
# [26] = rate 20, 6-10 weeks after application
# [27] = treatment 1: 1.0 g ae/ha at BEAVA stage B12-B16
# [28] = treatment 2: 2.0 g ae/ha at BEAVA stage B12-B16
# [29] = treatment 3: 3.0 g ae/ha at BEAVA stage B12-B16
# [30] = treatment 4: split application 0.5 g ae/ha at B10-B12 and 0.5 g ae/ha at B12-B16
# [31] = treatment 5: split application 1.0 g ae/ha at B10-B12 and 1.0 g ae/ha at B12-B16
smiles,measurement,setting,value
"COc1c(Cl)ccc(-c2cc(N)c(Cl)c(C(=O)O)n2)c1F [Compound I, 4-amino-3-chloro-6-(4-chloro-2-fluoro-3-methoxyphenyl)pyridine-2-carboxylic acid]","injury to turnip, on average did not exceed",[1]; 2.5 g ae/ha,≤ 2.5%
same,"injury to turnip, on average did not exceed",[1]; 5 g ae/ha,≤ 5%
same,"injury to turnip, on average did not exceed",[1]; 10 g ae/ha,≤ 7.5%
same,"injury to Juncea canola, on average did not exceed",[2]; 2.5 g ae/ha,≤ 7.5%
same,"injury to Juncea canola, on average did not exceed",[2]; 5 g ae/ha,≤ 11.3%
same,"injury to Juncea canola, on average did not exceed",[2]; 10 g ae/ha,≤ 5.5%
same,LD90,[3],≤ 10 g ae/ha
same,efficacy on commercially relevant broadleaf weeds,[4],highly efficacious
same,"injury to rutabaga, on average did not exceed",[5]; 2.5 g ae/ha,≤ 6.3%
same,"injury to rutabaga, on average did not exceed",[5]; 5 g ae/ha,≤ 10%
same,"injury to rutabaga, on average did not exceed",[5]; 10 g ae/ha,≤ 15%
same,crop injury,[6],little to no crop injury
COC(=O)c1nc(-c2ccc(Cl)c(OC)c2F)cc(N)c1Cl [4-Amino-3-chloro-6-(4-chloro-2-fluoro-3-methoxyphenyl)pyridine-2-carboxylic acid methyl ester],Percent (%) Crop Injury (Mean Value),[7]; [14],2.5%
same,Percent (%) Crop Injury (Mean Value),[7]; [15],0%
same,Percent (%) Crop Injury (Mean Value),[7]; [16],1.3%
same,Percent (%) Crop Injury (Mean Value),[7]; [17],1.3%
same,Percent (%) Crop Injury (Mean Value),[7]; [18],2.5%
same,Percent (%) Crop Injury (Mean Value),[7]; [19],3.8%
same,Percent (%) Crop Injury (Mean Value),[7]; [20],15%
same,Percent (%) Crop Injury (Mean Value),[8]; [21],8.3%
same,Percent (%) Crop Injury (Mean Value),[8]; [22],13.3%
same,Percent (%) Crop Injury (Mean Value),[8]; [17],11.7%
same,Percent (%) Crop Injury (Mean Value),[8]; [23],18.3%
same,Percent (%) Crop Injury (Mean Value),[8]; [19],18.3%
same,Percent (%) Crop Injury (Mean Value),[8]; [24],15%
same,Percent (%) Crop Injury (Mean Value),[8]; [25],13.3%
same,Percent (%) Crop Injury (Mean Value),[8]; [26],15%
same,Percent (%) Crop Injury (Mean Value),[1]; [14],2.5%
same,Percent (%) Crop Injury (Mean Value),[1]; [15],2.5%
same,Percent (%) Crop Injury (Mean Value),[1]; [16],5%
same,Percent (%) Crop Injury (Mean Value),[1]; [17],1.3%
same,Percent (%) Crop Injury (Mean Value),[1]; [18],7.5%
same,Percent (%) Crop Injury (Mean Value),[1]; [19],7.5%
same,Percent (%) Crop Injury (Mean Value),[1]; [25],7.5%
same,Percent (%) Crop Injury (Mean Value of Four Observations),[9]; [14],8.5%
same,Percent (%) Crop Injury (Mean Value of Four Observations),"[9]; rate 2.5, 2 weeks after application",4.8%
same,Percent (%) Crop Injury (Mean Value of Four Observations),[9]; [15],4.5%
same,Percent (%) Crop Injury (Mean Value of Four Observations),[9]; [16],14.3%
same,Percent (%) Crop Injury (Mean Value of Four Observations),"[9]; rate 5, 2 weeks after application",10%
same,Percent (%) Crop Injury (Mean Value of Four Observations),[9]; [17],7.5%
same,Percent (%) Crop Injury (Mean Value of Four Observations),[9]; [18],21.3%
same,Percent (%) Crop Injury (Mean Value of Four Observations),"[9]; rate 10, 2 weeks after application",25%
same,Percent (%) Crop Injury (Mean Value of Four Observations),[9]; [19],16.3%
same,Percent (%) Crop Injury (Mean Value of Four Observations),[9]; [20],23.8%
same,Percent (%) Crop Injury (Mean Value of Four Observations),"[9]; rate 20, 2 weeks after application",35%
same,Percent (%) Crop Injury (Mean Value of Four Observations),[9]; [25],25%
same,Percent (%) Crop Injury (Mean Value),[2]; [14],2.5%
same,Percent (%) Crop Injury (Mean Value),[2]; [15],7.5%
same,Percent (%) Crop Injury (Mean Value),[2]; [22],5%
same,Percent (%) Crop Injury (Mean Value),[2]; [16],3.8%
same,Percent (%) Crop Injury (Mean Value),[2]; [17],10.5%
same,Percent (%) Crop Injury (Mean Value),[2]; [23],11.3%
same,Percent (%) Crop Injury (Mean Value),[2]; [18],3.8%
same,Percent (%) Crop Injury (Mean Value),[2]; [19],5.5%
same,Percent (%) Crop Injury (Mean Value),[2]; [24],3.8%
same,Percent (%) Crop Injury (Mean Value),[2]; [20],30%
same,Percent (%) Crop Injury (Mean Value),[2]; [25],13.8%
same,Percent (%) Crop Injury (Mean Value),[2]; [26],0%
same,Percent (%) Visual Control POLCO,[10]; [27],5%
same,Percent (%) Visual Control POLCO,[10]; [28],22.5%
same,Percent (%) Visual Control POLCO,[10]; [29],60%
same,Percent (%) Visual Control POLCO,[10]; [30],20%
same,Percent (%) Visual Control POLCO,[10]; [31],35%
same,Percent (%) Crop Injury (Mean Value),[11]; [22],7.5%
same,Percent (%) Crop Injury (Mean Value),[11]; [17],9.2%
same,Percent (%) Crop Injury (Mean Value),[11]; [23],7.5%
same,Percent (%) Crop Injury (Mean Value),[11]; [19],8.8%
same,Percent (%) Crop Injury (Mean Value),[11]; [24],0%
same,Percent (%) Crop Injury (Mean Value),[11]; [25],11.3%
same,Percent (%) Crop Injury (Mean Value),[12]; [21],6.7%
same,Percent (%) Crop Injury (Mean Value),[12]; [22],6.7%
same,Percent (%) Crop Injury (Mean Value),[12]; [17],13.3%
same,Percent (%) Crop Injury (Mean Value),[12]; [23],11.7%
same,Percent (%) Crop Injury (Mean Value),[12]; [19],15%
same,Percent (%) Crop Injury (Mean Value),[12]; [24],8.3%
same,Percent (%) Crop Injury (Mean Value),[12]; [25],22.3%
same,Percent (%) Crop Injury (Mean Value),[12]; [26],6.7%
same,Percent (%) Crop Injury (Mean Value),[5]; [14],6.3%
same,Percent (%) Crop Injury (Mean Value),[5]; [15],3.8%
same,Percent (%) Crop Injury (Mean Value),[5]; [16],10%
same,Percent (%) Crop Injury (Mean Value),[5]; [17],3.3%
same,Percent (%) Crop Injury (Mean Value),[5]; [18],15%
same,Percent (%) Crop Injury (Mean Value),[5]; [19],7.5%
same,Percent (%) Crop Injury (Mean Value),[5]; [20],27.5%
same,Percent (%) Crop Injury (Mean Value),[5]; [25],15%
same,Percent (%) Visual Control CHEAL,[13]; [27],35%
same,Percent (%) Visual Control CHEAL,[13]; [28],98%
same,Percent (%) Visual Control CHEAL,[13]; [29],95.8%
same,Percent (%) Visual Control CHEAL,[13]; [30],30%
same,Percent (%) Visual Control CHEAL,[13]; [31],96.8%
